Source: publication PMC11031313 (Cell chemical biology, 2024)

Tests used:
[1] = system: Nef-mediated CD4 downregulation; experiment: Rescue of cell-surface CD4 in Dox-induced CEM/Nef-eGFP T cells; assay type: cell-based, human; conditions: 3 μM, 24 h
[2] = system: Nef-mediated MHC-I downregulation; experiment: Rescue of cell-surface MHC-I in Dox-induced CEM/Nef-eGFP T cells; assay type: cell-based, human; conditions: 3 μM, 24 h
Nef-eGFP fusion protein = Nef-eGFP fusion protein (UniProt P03406+Q96SW2); experiment: Nef-eGFP protein loss in CEM/Nef-eGFP cells by flow cytometry; assay type: cell-based, HIV-1; conditions: 3 μM, 24 h
Chain of Nef-eGFP fusion protein (Q16531 whole entry, other chains not shown, the tested form may be a part): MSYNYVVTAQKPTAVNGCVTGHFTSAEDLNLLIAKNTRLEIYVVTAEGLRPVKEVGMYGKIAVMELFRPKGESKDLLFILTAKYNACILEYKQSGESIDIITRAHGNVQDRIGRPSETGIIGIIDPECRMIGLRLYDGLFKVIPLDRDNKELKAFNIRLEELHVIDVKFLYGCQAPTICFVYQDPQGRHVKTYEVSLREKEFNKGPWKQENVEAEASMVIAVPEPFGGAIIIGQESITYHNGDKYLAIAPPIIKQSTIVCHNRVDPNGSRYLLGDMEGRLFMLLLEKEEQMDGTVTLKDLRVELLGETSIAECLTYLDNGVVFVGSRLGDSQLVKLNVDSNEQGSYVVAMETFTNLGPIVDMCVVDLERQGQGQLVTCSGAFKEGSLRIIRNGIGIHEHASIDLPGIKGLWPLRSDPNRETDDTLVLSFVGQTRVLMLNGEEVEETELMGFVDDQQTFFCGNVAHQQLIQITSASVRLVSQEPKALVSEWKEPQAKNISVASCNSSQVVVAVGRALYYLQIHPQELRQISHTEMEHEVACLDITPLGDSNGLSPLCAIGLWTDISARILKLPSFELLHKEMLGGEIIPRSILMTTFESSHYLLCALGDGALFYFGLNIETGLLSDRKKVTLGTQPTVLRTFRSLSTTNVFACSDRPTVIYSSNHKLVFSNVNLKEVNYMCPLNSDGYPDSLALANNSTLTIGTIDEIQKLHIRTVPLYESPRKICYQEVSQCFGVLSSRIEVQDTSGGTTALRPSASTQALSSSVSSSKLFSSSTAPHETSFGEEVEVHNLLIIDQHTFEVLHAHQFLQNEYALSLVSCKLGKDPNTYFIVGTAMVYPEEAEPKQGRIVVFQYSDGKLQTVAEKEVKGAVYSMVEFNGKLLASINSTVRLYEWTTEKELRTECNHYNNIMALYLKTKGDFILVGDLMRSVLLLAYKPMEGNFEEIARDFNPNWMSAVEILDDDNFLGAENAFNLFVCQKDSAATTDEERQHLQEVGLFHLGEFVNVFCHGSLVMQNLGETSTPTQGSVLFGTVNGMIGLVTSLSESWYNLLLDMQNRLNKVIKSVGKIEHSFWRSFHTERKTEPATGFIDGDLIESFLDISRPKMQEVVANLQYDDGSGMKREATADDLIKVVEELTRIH
Chain of Nef-eGFP fusion protein (Q96SW2 whole entry, other chains not shown, the tested form may be a part): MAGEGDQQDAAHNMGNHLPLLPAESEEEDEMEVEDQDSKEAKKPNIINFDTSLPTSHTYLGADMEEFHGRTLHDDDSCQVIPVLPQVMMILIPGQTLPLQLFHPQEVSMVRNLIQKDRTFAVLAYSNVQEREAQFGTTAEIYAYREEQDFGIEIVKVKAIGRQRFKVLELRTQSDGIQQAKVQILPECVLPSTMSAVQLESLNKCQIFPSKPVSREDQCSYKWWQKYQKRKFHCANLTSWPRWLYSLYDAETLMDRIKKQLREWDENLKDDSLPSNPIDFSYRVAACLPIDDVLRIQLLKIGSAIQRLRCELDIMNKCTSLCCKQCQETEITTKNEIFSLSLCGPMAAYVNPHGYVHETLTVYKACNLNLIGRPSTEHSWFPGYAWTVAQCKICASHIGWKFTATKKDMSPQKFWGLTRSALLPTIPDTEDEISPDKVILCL

HIV-1 Nef (SF2 variant) = HIV-1 Nef (SF2 variant) (Human immunodeficiency virus type 1 group M subtype B, UniProt P03407); assay type: cell-based; conditions: 293T cells, PROTAC 10 μM, 24 h
[3] = target: Nef (NL4-3 variant) and CRBN thalidomide-binding domain (UniProt P03406+Q96SW2, A33V/T15A/T51N/V11I); experiment: PROTAC-mediated ternary complex formation in vitro; conditions: 25 μM of each protein, 5-, 10- or 20-fold molar excess of PROTAC
Chain of Nef (NL4-3 variant) and CRBN thalidomide-binding domain (Q96SW2 317-425, other chains not shown): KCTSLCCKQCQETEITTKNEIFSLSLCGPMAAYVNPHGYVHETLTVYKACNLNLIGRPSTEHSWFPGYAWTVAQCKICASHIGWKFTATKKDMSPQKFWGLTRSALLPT

[4] = target: HIV-1 Nef (NL4-3 variant) (Human immunodeficiency virus type 1, UniProt Q90VU7); experiment: SPR binding to HIV-1 Nef; conditions: for binding kinetics with Nef (in words): SPR, 90 s association, 180 s dissociation
[5] = target: thalidomide-binding domain of CRBN (Homo sapiens, UniProt Q96SW2); experiment: SPR binding to CRBN thalidomide-binding domain; conditions: 90 s association, 180 s dissociation
Chain of thalidomide-binding domain of CRBN (Q96SW2 317-425): as the sequence (Q96SW2 317-425, other chains not shown) above

HIV-1NL4-3 [6] = experiment: HIV-1 replication in donor PBMCs; assay type: cell-based; conditions: 1 μM, 4 days
uninfected PBMCs = experiment: Viability of uninfected PBMCs; assay type: cell-based, human; conditions: 1 μM, 4 days
[7] = target: M-group HIV-1 Nef variants; experiment: SPR binding to M-group HIV-1 Nef variants; conditions: HIV-1 Nef proteins
SIV Nef mac239 = SIV Nef mac239 (Simian immunodeficiency virus, UniProt Q5QGG3); experiment: SPR binding to SIV Nef mac239
IKZF1 (Ikaros) = IKZF1 (Ikaros) (Homo sapiens, UniProt Q13422); experiment: IKZF1 protein level in CEM/Nef-eGFP T cells; assay type: cell-based; conditions: CEM/Nef-eGFP cells after Dox induction
Chain of IKZF1 (Ikaros) (Q13422 whole entry): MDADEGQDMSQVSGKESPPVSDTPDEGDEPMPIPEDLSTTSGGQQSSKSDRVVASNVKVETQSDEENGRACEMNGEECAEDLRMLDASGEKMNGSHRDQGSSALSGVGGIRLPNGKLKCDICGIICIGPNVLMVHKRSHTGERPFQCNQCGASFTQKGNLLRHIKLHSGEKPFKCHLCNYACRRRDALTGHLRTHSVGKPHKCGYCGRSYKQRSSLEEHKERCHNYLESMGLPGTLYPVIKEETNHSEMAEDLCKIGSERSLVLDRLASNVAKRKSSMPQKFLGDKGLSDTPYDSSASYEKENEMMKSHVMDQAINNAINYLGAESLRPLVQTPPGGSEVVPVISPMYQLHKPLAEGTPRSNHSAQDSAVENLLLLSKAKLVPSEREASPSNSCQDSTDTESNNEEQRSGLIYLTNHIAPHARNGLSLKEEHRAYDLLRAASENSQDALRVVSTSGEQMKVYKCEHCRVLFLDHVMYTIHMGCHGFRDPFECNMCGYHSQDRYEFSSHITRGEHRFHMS

HIV-1NL4-3 [8] = experiment: HIV-1 infectivity assay in TZM-bl reporter cells; assay type: cell-based; conditions: Human immunodeficiency virus 1, TZM-bl, 48 h, read-out: IC50, HIV-1 infectivity
TZM-bl cells = experiment: Viability of uninfected TZM-bl cells; assay type: cell-based, human

Row | SMILES | cell-surface CD4 rescue (in words) [1] | cell-surface MHC-I rescue (in words) [2] | Nef-eGFP protein loss / Nef degradation (in words) (Nef-eGFP fusion protein) | induction of Nef ubiquitylation (in words) (HIV-1 Nef (SF2 variant)) | ternary complex formation (in words) [3] | binding kinetics with Nef (in words) [4] | Kd [7] [nM] | Kd (SIV Nef mac239) [nM] | further results
1 | O=C(COCCOc1ccc(CCc2c(-c3ccc(C(F)(F)F)cc3)nn(-c3nc4cc(Cl)ccc4[nH]3)c2O)cc1)NCCNc1cccc2c1C(=O)N(C1CCC(=O)NC1=O)C2=O (centres unmarked) [FC-13182, 2-[2-(4-{2-[1-(5-chloro-1H-1,3-benzodiazol-2-yl)-5-hydroxy-3-[4-(trifluoromethyl)phenyl]-1H-pyrazol-4-yl]ethyl}phenoxy)ethoxy]-N-(2-{[2-(2,6-dioxopiperidin-3-yl)-1,3-dioxo-2,3-dihydro-1H-isoindol-4-yl]amino}ethyl)acetamide] | restored CD4 and MHC-I expression | restored CD4 and MHC-I expression | effectively induced Nef degradation | – | – | – | – | – | –
2 | CN(CCNC(=O)COCCOc1ccc(CCc2c(-c3ccc(C(F)(F)F)cc3)nn(-c3nc4cc(Cl)ccc4[nH]3)c2O)cc1)c1cccc2c1C(=O)N(C1CCC(=O)NC1=O)C2=O (centres unmarked) [FC-13887, 2-[2-(4-{2-[1-(5-chloro-1H-1,3-benzodiazol-2-yl)-5-hydroxy-3-[4-(trifluoromethyl)phenyl]-1H-pyrazol-4-yl]ethyl}phenoxy)ethoxy]-N-(2-{[2-(2,6-dioxopiperidin-3-yl)-1,3-dioxo-2,3-dihydro-1H-isoindol-4-yl](methyl)amino}ethyl)acetamide] | – | – | – | active | induce ternary complexes of Nef with CRBN | – | – | – | z-score of normalized BRET ratio (Nef ubiquitylation) (HIV-1 Nef (SF2 variant)): 1.3
3 | O=C(COc1cccc2c1CN(C1CCC(=O)NC1=O)C2=O)NCCOCCOCCOCc1ccc(-c2nn(-c3nc4cc(Cl)ccc4[nH]3)c(O)c2CCc2ccc(F)cc2)cc1 (centres unmarked) [FC-12988, N-(2-{2-[2-({4-[1-(5-chloro-1H-1,3-benzodiazol-2-yl)-4-[2-(4-fluorophenyl)ethyl]-5-hydroxy-1H-pyrazol-3-yl]phenyl}methoxy)ethoxy]ethoxy}ethyl)-2-{[2-(2,6-dioxopiperidin-3-yl)-1-oxo-2,3-dihydro-1H-isoindol-4-yl]oxy}acetamide] | restored CD4 and MHC-I expression | restored CD4 and MHC-I expression | effectively induced Nef degradation | – | induce ternary complexes of Nef with CRBN | more rapid association and release compared to FC-13182 | – | – | binding kinetics with CRBN thalidomide-binding domain (in words) [5]: associated more slowly than FC-13182 and showed a comparatively slow dissociation phase
4 | O=C(COCCOCCOCCCc1ccc(-c2nn(-c3nc4cc(Cl)ccc4[nH]3)c(O)c2CCc2ccc(F)cc2)cc1)NCCNc1cccc2c1C(=O)N(C1CCC(=O)NC1=O)C2=O (centres unmarked) [FC-13818, 2-{2-[2-(3-{4-[1-(5-chloro-1H-1,3-benzodiazol-2-yl)-4-[2-(4-fluorophenyl)ethyl]-5-hydroxy-1H-pyrazol-3-yl]phenyl}propoxy)ethoxy]ethoxy}-N-(2-{[2-(2,6-dioxopiperidin-3-yl)-1,3-dioxo-2,3-dihydro-1H-isoindol-4-yl]amino}ethyl)acetamide] | – | – | – | – | induce ternary complexes of Nef with CRBN | – | – | – | HIV-1 replication (in words) (HIV-1NL4-3 [6]): reduced HIV-1 replication below the level of the ΔNef mutant; reduction of viability (uninfected PBMCs): 20%
5 | O=C1CCC(N2Cc3c(OCC(=O)N4CCC(c5nn(-c6nc7cc(Cl)ccc7[nH]6)c(O)c5CCc5ccc(F)cc5)CC4)cccc3C2=O)C(=O)N1 (centres unmarked) [FC-14367, 3-[4-(2-{4-[1-(5-chloro-1H-1,3-benzodiazol-2-yl)-4-[2-(4-fluorophenyl)ethyl]-5-hydroxy-1H-pyrazol-3-yl]piperidin-1-yl}-2-oxoethoxy)-1-oxo-2,3-dihydro-1H-isoindol-2-yl]piperidine-2,6-dione] | – | – | – | – | – | – | < 1000 | < 1000 | –
6 | O=C(COc1ccc(CCc2c(-c3ccc(C(F)(F)F)cc3)nn(-c3nc4cc(Cl)ccc4[nH]3)c2O)cc1)NCCNc1cccc2c1C(=O)N(C1CCC(=O)NC1=O)C2=O (centres unmarked) [FC-14369, 2-(4-{2-[1-(5-chloro-1H-1,3-benzodiazol-2-yl)-5-hydroxy-3-[4-(trifluoromethyl)phenyl]-1H-pyrazol-4-yl]ethyl}phenoxy)-N-(2-{[2-(2,6-dioxopiperidin-3-yl)-1,3-dioxo-2,3-dihydro-1H-isoindol-4-yl]amino}ethyl)acetamide] | – | – | parallel loss in Nef expression | active | – | delayed dissociation | < 1000 | < 1000 | effect on the protein level of IKZF1 (IKZF1 (Ikaros)): reduced the expression of IKZF1; Kd [4]: 6.5 nM; IC50 (HIV-1NL4-3 [8]): ~250 nM; cytotoxicity (in words) (TZM-bl cells): without cytotoxicity
